In US12377054B2, “Targeting the innate immune system to induce long-term tolerance and to resolve macrophage accumulation in atherosclerosis” (Icahn School of Medicine at Mount Sinai, priority 2016, dated 2025):

Columns and labels:
myeloid cell compartment = test: Flow cytometry of leukocytes and myeloid cell compartment in blood, spleen and allograft of heart transplant recipients; assay type: in vivo, mice; conditions: six days after transplantation
Excerpt: The leukocyte population was profiled and, more extensively, the myeloid cell compartment, including neutrophils. Mo/MΦ and DC, in the blood, spleens and allografts of mice receiving placebo, oral rapamycin (Oral-Ra) and mTOR-HDL treatments, where the treatment regimen involved three intravenous mTOR-HDL injections, on the day of, as well as at two and five days post transplantation.
Mo/MΦ comprise two different subsets (Ly-6C^hi and Ly-6C^lo) with district migratory properties^23. Six days after transplantation, untreated and Oral-Ra-treated mice had increased numbers of accumulated myeloid cells in their blood, spleen and heart allografts (FIG. 2B and FIG. 9A). Further, the elevated Mo/MΦ populations contained high percentages of inflammatory Ly6C^hi monocytes (FIGS. 9A and 2B). […] The Mo/MΦ subset proportions in the spleen and transplanted organs reflected the levels in peripheral blood (FIG. 1E).
Mouse hearts were rinsed in situ with HBSS with 1% heparin. Explanted hearts were cut into small pieces and digested for 40 minutes at 37° C. with 400 U/ml collagenase IV (Sigma-Aldrich), 10 mM HEPES (Cellgro) and 0.01% DNase 1 (MP Biomedicals) in HBSS (Cellgro). Digested suspensions were passed through a nylon mesh and centrifuged, and the cell pellet was re-suspended in complete HBSS, stained and analyzed by flow cytometry (BD LSR-II; BD Biosciences).
For myeloid cell staining, fluorochrome-conjugated mAbs specific to mouse CD45 (clone 30-F11). CD11b (clone MI/70), CD11c (clone N418), F4/80 (clone CI:A3.1). Ly-6C (clone HK1.4) and corresponding isotype controls were purchased from eBioscience. Ly-6G (clone 1A8) mAb was purchased from Biolegend. F4/80 (clone CI:A3.1) was purchased from AbD Serotec. […] Flow cytometric analysis was performed on LSR II (BD Biosciences) and analyzed with FlowJo software (Tree Star, Inc.). Results are expressed as percentage of cells staining or cells counting (cells per milliliter) above background. mAbs were titered at regular intervals during the course of these studies to ensure the use of saturating concentrations. […]

cardiac allografts = test: Heart allograft survival (BALB/c into C57BL/6); assay type: in vivo, mice; conditions: over a 50-day period, three doses 5 mg/kg rapamycin
Experimental: Lastly, nanoimmunotherapy treatment's capacity to prevent organ rejection and prolong allograft survival was evaluated. Balb/c (H2^d) donor cardiac allografts were transplanted into fully allogeneic C57Bl/6 (H2) recipients treated with: (1) placebo. […] To assess graft survival, recipients underwent abdominal palpation until cardiac contractions completely ceased.
BALB/c hears were transplanted as fully vascularized heterotopic grafts into C57BL/6 mice as previously described^45. […] Cardiac allograft survival was subsequently assessed through daily palpation. Rejection was defined as the complete cessation of cardiac contraction and was confirmed by direct visualization at laparotomy. Graft survival was compared among groups using Kaplan-Meier survival analysis.

[1] = mouse, in vivo, po
[2] = tested on: RAW 264.7 cell line of murine macrophages; test: In vitro BrdU incorporation in RAW 264.7 macrophages; assay type: cell-based; conditions: 24 hours

SMILES	Ly-C^lo monocytes in blood (myeloid cell compartment)	Ly-C^lo monocytes in heart allografts (myeloid cell compartment)	Ly-C^lo monocytes in spleen (myeloid cell compartment)	allograft survival (cardiac allografts)	kidney toxicity parameters [1]	proliferation rate of RAW 264.7 macrophages [2]
CO[C@H]1C[C@@H]2CC[C@@H](C)[C@@](O)(O2)C(=O)C(=O)N2CCCC[C@H]2C(=O)O[C@H]([C@H](C)C[C@@H]2CC[C@@H](O)[C@H](OC)C2)CC(=O)[C@H](C)/C=C(\C)[C@@H](O)[C@@H](OC)C(=O)[C@H](C)C[C@H](C)/C=C/C=C/C=C/1C [Oral-Ra, rapamycin]	13%	18%	44%	35%	statistical differences between Oral-Ra and mTOR-HDL	
Cc1ccc(C)c(N/C=C/C(=O)c2ccccc2)c1 [compound 6877002, (2E)-1-phenyl-3-(2,5-dimethylanilino)-2-propen-1one]						did not affect the proliferation rate
